# Test results taken from patent US11052162B2, “Liposomal gadolinium (GD) contrast agent “NMRX” for T1-MRI” (TEXAS CHILDREN'S HOSPITAL, priority 2016, dated 2021).
# How the values were obtained:
# [1] = Placental and fetal contrast agent concentration and uptake from DCE-MRI data; assay type: in vivo, mouse
# Source text: The image data was used to calculate absolute Gd concentrations using the methods in Appendix A. Contrast agent concentrations estimated from the MRI data are shown in Table 2-2 using Eqs. A4 and A5.
# For the DCE-MRI study, baseline images without contrast enhancement were acquired, followed by a series of images acquired over time during and after the arrival of the contrast agent in the tissue of interest. A 3D-spoiled gradient recalled echo (SPGRE) pulse sequence with a fixed flip angle of 16 degrees was used over 175 measurements. Other parameters are described in Appendix A. The time for a single measurement was 9.25 seconds. Two minutes into the experiment, contrast was injected. Total scan time was 26 minutes and 52 seconds. The acquired signal was used to generate a time-intensity curve and the signal was converted pixel-by-pixel into concentration of the injected agent.
# MRI data was transferred to an offline workstation and each placental and fetal compartment was segmented as a separate region of interest (ROI) using AMIRA V5.6 software (FEI Visualization Sciences Group, Hillsboro, Oreg.). The segmented regions were transferred to Matlab (Matlab 7.6.0, MathWorks, Natick, Mass., USA) to create a pixel-by-pixel T1(0) map and T1(t) map as described in Appendix A. Two placental zones were identified visually from the signal enhancement pattern: the labyrinth zone characterized by early flow enhancement and a peripheral region (maternal decidua) characterized by late flow enhancement that began after the central labyrinth enhancement peaked. The two zones together constitute the entire placenta.
# [2] = Gadolinium assay by ICP-MS of placentae and fetuses; assay type: in vivo, mouse
# Experimental: (§1) 25 female Balb/c mice (7-9 weeks old; average weight 26 grams before pregnancy) were used in this study. Animals were mated with same strain males. The day when a vaginal copulation plug was detected was designated as day 0.5. Pregnant mice were imaged at day 16.5±1. Mice were sacrificed (under the institutional euthanasia protocol) immediately after MRI data collection (except for two mice that received the liposomal Gd agent, and were maintained alive for 72 hours, allowing additional time for possible transport of Gd to the fetus, and then sacrificed). Mice were dissected and the placentae and fetuses removed and transferred individually to 2 ml polycarbonate vials for storage at −81° C. These placentae and fetuses were analyzed using ICP-MS for the direct measurement of Gd concentration.
# Wet tissue from placentae or pups was chopped with a scalpel into ˜3 mm pieces. A known mass of chopped tissue was then dissolved in 2-4 ml of concentrated nitric acid (14N) and heated at 100° C. till tissue completely dissolved. (Usually, about 30-45 minutes at room temperature and 3 minutes at 100° C. were sufficient). The acid solution was diluted with 10 ml of DI water, causing some precipitation of organic material. The material was centrifuged at 3000 g for 5-10 minutes, and the supernatant used for analysis. Serial dilutions over a 10^6 range were then made, and spiked with an internal standard of Bi 10 parts per billion (ppb) in 2% nitric acid. ICP-MS analysis was conducted on a Varian 810 ICP-MS system, using the manufacturer's recommended protocol for Gd assay. A spike-recovery study on blank tissue yielded linear response with >90% recovery over a range of 0-900 ppb and >96% response over a range of 0-50 ppb.
# [3] = Relaxivity (r1) by variable flip angle technique at 9.4 T; assay type: physicochemical
# Experimental: (§2) While the liposomal contrast agent has slow clearance, Multihance® clears rapidly, and timing the image acquisition is critical. We therefore opted to use the DCE-MRI technique to collect a series of images, from which the optimal time point could be selected. DCE-MRI experiments were performed on a horizontal bore 9.4 T Bruker Avance III, 20 cm bore Biospec Spectrometer (Karlsruhe, Germany) with a micro-imaging probe capable of generating gradients of (1000 mT/m). Prior to the in vivo study, the relaxivity of both agents was measured using the variable flip angle technique described in Appendix A. Similarly, the baseline relaxation rates, T1(O), for placenta and fetus were measured using the same pulse sequence as described in Appendix A.
# [4] = system: pregnant Balb/c mice; assay: Blinded reader rating of placental visibility in DCE-MRI; assay type: in vivo, mouse
# Experimental: The trans-placental permeability of liposomal gadolinium (Gd) nanoparticle contrast agents was evaluated in a pregnant mouse model. Pregnant Balb/c mice at 16.5 (±1) days of gestation were imaged using a 3D Spoiled Gradient Echo method at 9.4 T using two contrast agents: a clinically approved Gd chelate, Multihance® (gadobenate dimeglumine), and a novel experimental liposomal Gd agent. A Dynamic Contrast Enhancement (DCE) protocol was used to capture the dynamics of contrast entry and distribution in the placenta, and clearance from circulation. A blinded clinical radiologist evaluated both sets of images. A reference region model was used to measure the placental flow and physiological parameters; volume transfer constant (Ktrans), efflux rate constant (Kep). The Gd content of excised placentae and fetuses was measured, using inductively coupled plasma mass spectrometry (ICP-MS). […] Image interpretation and diagnostic quality was equivalent between the two contrast agents.
# as §1
# Animals were anesthetized with 4% Isofluorane/air and transferred supine to the animal-imaging cradle. A 28-gauge catheter was placed in the tail vein. Once transferred to the imaging instrument, isofluorane (2%) was administered continuously via a nose cone. A pressure sensitive pillow was placed on the abdomen and taped in place to monitor respiration. The animal chamber of the imaging probe was maintained at around 30-33° C. The magnet room was maintained at 25-27° C. Heart rate was maintained at steady 50-60 beats-per-minute by adjusting the airflow and isofluorane concentration. MR imaging was performed with Multihance® in 14 mice. Liposomal Gd was used in 9 mice. Two mice were injected with saline as a control for comparison. Contrast agents were diluted to 20 mM and a dose of 0.08 mmol/kg (typically around 100 μL) were prepared for this study. The contrast agent was injected manually by the same operator (3 years of experience with small animals) and at the same rate in each mouse.
# as §2
# For the DCE-MRI study, baseline images without contrast enhancement were acquired, followed by a series of images acquired over time during and after the arrival of the contrast agent in the tissue of interest. A 3D-spoiled gradient recalled echo (SPGRE) pulse sequence with a fixed flip angle of 16 degrees was used over 175 measurements. Other parameters are described in Appendix A. The time for a single measurement was 9.25 seconds. […]
# [5] = system: pregnant Sprague Dawley rats; assay: DCE-MRI visualization of the retroplacental space; assay type: in vivo, rat; conditions: 0.15 mmol Gd/kg, 20 minute post-contrast acquisition
# Experimental: In the study with the conventional Gd contrast agent, dynamic contrast enhanced MRI (DCE-MRI) was performed using gadoterate meglumine (Gd-DOTA, Dotarem®) to evaluate visualization of the retroplacental space. DCE-MRI was performed using a T1w 2D gradient echo sequence (GRE) sequence with the following scan parameters: TE=3.5 ms, TR=15 ms, FA=25, slice thickness=0.8 or 1.6 mm, NEX=12; temporal resolution=47 s. Four non-contrast, baseline images were acquired followed by bolus intravenous administration of gadoterate meglumine (0.15 mmol Gd/kg). Post-contrast imaging was continued for upto 20 minutes after administration of gadoterate meglumine. In order to directly compare image quality between the two contrast agents, liposomal-Gd contrast agent (0.15 mmol Gd/kg) was administered a minimum of three hours later, allowing clearance of gadoterate meglumine. Post-liposomal-Gd contrast images were acquired using the same DCE-MRI protocol.
# Pre-contrast and post-contrast scans were reviewed by a trained maternal-fetal radiologist (˜10 years of experience). T1 weighted GRE images and T2 weighted FSE images were included in the review. […] The visibility of target features in T1w and T2w images were scored by the radiologist on a 3-point scale: 0=not visible, 1=partly visible and 2=clearly visible. […]
# [6] = placentae rated by blinded reader, 5-point scale, 9.4 T
SMILES,"uptake of contrast agent in the fetal compartment ([1]; MRI, liposomal Gd even after 72 hr exposure)","Placental concentration ([1]; gadolinium peak from MRI data, mean, ROI around entire placenta, 0.08 mmol/kg)","Fetal concentration ([1]; gadolinium peak from MRI data, mean, ROI around fetal sac, 0.08 mmol/kg)","Gd concentration in placentae and fetuses versus detection limit ([2]; 45 minutes and 90 minutes post injection, detection limit 0.318 nmol/g tissue)",Placental and fetal Gd concentrations relative to each other ([2]; 45 minutes post-injection),"Placental and fetal Gd concentrations, factor of each other ([2]; 90 minutes post-injection)",transplacental permeation ([2]; MRI images and ICP-MS analyses of placental and fetal tissue),relaxivity (r1) [3],time of image intensity peak after injection ([4]; DCE-MRI),"Number observed with Placenta Visibility 1 [4, 6]","Number observed with Placenta Visibility 2 [4, 6]","Number observed with Placenta Visibility 3 [4, 6]","Number observed with Placenta Visibility 4 [4, 6]","Number observed with Placenta Visibility 5 [4, 6]",visualization of the retroplacental space [5]
"CNC[C@H](O)[C@@H](O)[C@H](O)[C@H](O)CO.CNC[C@H](O)[C@@H](O)[C@H](O)[C@H](O)CO.O=C([O-])CN(CCN(CC(=O)[O-])CC(=O)O)CCN(CC(=O)O)C(COCc1ccccc1)C(=O)[O-].[Gd+3] (stereo not drawn) [Multihance, gadobenate dimeglumine]",uptake of contrast agent in the fetal compartment was observed,0.60 ± 0.51 µmol/L,0.027 ± 0.01 µmol/L,above the detection limit,within an order of magnitude of each other,≤ 2,avidly permeated the placental barrier,3.99 ± 0.52 s/mM,11 to 15 s,1,6,25,15,7,–
CNC[C@H](O)[C@@H](O)[C@H](O)[C@H](O)CO.O=C([O-])CN1CCN(CC(=O)[O-])CCN(CC(=O)O)CCN(CC(=O)[O-])CC1.[Gd+3] [gadoterate meglumine],–,–,–,–,–,–,–,–,–,–,–,–,–,–,no consistent and reproducible visualization of the retroplacental space
